One series concerns RA synovial cells. Put plainly: cell cycle of RA synovial cells after synoviolin siRNA (flow cytometer). Type of series: cell-based. The settings on record: 25 nM siRNA, FIG. 7. The method, then:
RA synovial cells were seeded on a 10 cm dish at 9.0×10^4 cells/dish, and were transfected with synoviolin siRNA (final concentration 25 nM). Then, the cell cycle was monitored by flow cytometer.
In general terms: In flow cytometry, cells or beads pass a laser one at a time.

The test system of another series is synoviolin and p53 mRNA. Put plainly: mRNA levels of synoviolin and p53 in RASCs under synoviolin RNAi (TaqMan). The format is cell-based. The settings on record: 25 nM siRNA, cultured 4 d, 18S rRNA as control, FIG. 14. The protocol:
RASCs were seeded on a 10 cm dish at 30,000 cells/dish, and were transfected with 25 nM of siRNA (No. 589) according to a routine method. The cells were then cultured for 4 d. During this period, cells were collected overtime to obtain mRNA. Random primers were used, with 1 μg of mRNA as a template, to perform reverse transcription reactions, and cDNAs were obtained. The obtained cDNAs were quantified using the ABI TaqMan Gene expression assay (GEX). The mRNA levels were calculated using 18S rRNA as control.
The GEX reagent target assay no. (Assay ID) is Hs00381211_m1 for synoviolin and Hs00153340_m1 for p53.
In general terms: Real-time PCR tracks product formation cycle by cycle.

Series [1] has as its system phosphorylation of Ser15 of p53 (ATM and ATR). Put plainly: p53 Ser15 phosphorylation in RKO cells treated with synoviolin siRNA, with or without caffeine (Western blotting). The format is cell-based, human. The settings on record: caffeine 10 mM, both 12 h and 24 h after the addition, FIG. 5. The protocol: RKO cells (human colon cancer cells), which had been confirmed to express wild-type p53, were seeded on a 60 mm plate at 1.0×10^5 cells/plate/2 mL), and were transfected with siRNA oligonucleotides against GFP and synoviolin, using Oligofectamine. After 72 h, caffeine (10 mM), an inhibitor of ATM (ataxia-telangiectasia mutated) and ATR (an ATM and Rad3-related), which are important in the phosphorylation of […], was added. Then, Western blotting was performed using Phospho-p53 ([…]), an antibody to the phosphorylated […]-p53.
(In general: In western blotting, separated proteins are transferred to a membrane and probed.)

Another series has as its system p53 protein. Description: p53 protein expression level in RKO cells (Western blotting). Type of series: cell-based, human. To be noted: 5, 10 or 20 μM, 24 h, FIG. 19. The protocol:
Fractions of homogenized cells were prepared from various cells using a cell homogenizing solution (50 mM Tris-HCl [pH 8.0], 150 mM NaCl, 1% NP40, 1 mM PMSF, 0.1% sodium dodecyl sulfate (SDS), 2 μg/mL leupeptin, 2 μg/mL aprotinin, and 2 μg/mL pepstatin). Then, fractions of homogenized cells were separated by SDS-PAGE. After SDS-PAGE, the cell-derived proteins were transferred onto a nitrocellulose (NC) membrane by an electroblotting method. This NC membrane was blocked with Tris buffered saline (TBS) with 5% skim milk at room temperature for 1 h, and then immunoreacted with anti-p53 antibody C-terminal aa; 195-393 or FL393, both of which were diluted in TBS with 5% skim milk, at room temperature for 1 h. The NC membrane after reaction was washed with 0.1% Tween 20/TBS, and then immunoreacted with horse radish peroxidase (HRP)-labeled anti-rabbit IgG antibody as secondary antibody, at room temperature for 1 h. The membrane was washed with 0.1% Tween 20/TBS, and HRP activity was sought to detect the target antigen. An ECL kit (Amersham) was used to detect HRP activity […]).
RKO cells were treated with compound Y, and changes in p53 protein expression level were examined by Western blotting. Specifically, RKO cells were seeded in 10 cm plates at 5.0×10^5 cells/plate, and cultured for 24 h. […]

In another series the test system is RKO cells. Description: cytotoxicity / cell survival rate in RKO cells (WST-8). To be noted: cultured 24-72 h with compound, FIG. 18. The format is cell-based, human. The protocol: RKO cells (a human colon carcinoma cell line; ATCC: CRL-2577) were seeded in Eagle's Minimum Essential Medium containing 10% fetal bovine serum in a 96-well microtiter plate (Falcon; non-coated) at 1,000 cells/100 μL/well, and cultured for 24 h. Compounds X and Y were dissolved in Eagle's Minimum Essential Medium containing 10% fetal bovine serum, and 10 μL amounts were added to wells. The cells were then cultured for 24-72 h.
After culture, WST-8 (2-(2-methoxy-4-nitrophenyl)-3-(4-nitrophenyl)-5-(2,4-disulfophenyl)-2H-tetrazolium, monosodium salt) was added to each well. After 2-4 h, absorbances at 450 nm were measured (reference wavelength: […]) and cell survival rates were calculated (FIG. 18).
The calculation method was based on the following formula: […]

Series [2] deals with T1, synoviolin (MBP-Syno ΔTM-His), substrate GST-p53 (Homo sapiens).
T1 construct: GST-SynoΔTM 236-617:pGEX-5-1/S ΔTM; His tag (C); made in house; host or cells: E. coli
Put plainly: in vitro ubiquitination reaction of GST-p53 by MBP-Syno ΔTM-His (Western blot, anti-p53 FL393). The format is biochemical. To be noted: 75, 150, 300 or 600 μM compound; FIG. 17B. The protocol: E. coli (BL21) hosting pGEX/p53 was cultured in 500 mL of LB medium. After induction with IPTG (1 mM at 30° C. for 6 h), an extract was prepared from the culture solution, using buffer containing 0.5% NP-40. From the E. coli extract, GST-p53 was purified using a GSH-Sepharose resin in the presence of 0.1% NP-40. […] After the reaction, proteins were separated by 7.5% SDS-PAGE, and transferred onto a PVDF membrane, prior to detection of the p53 protein on the membrane using anti-p53 antibodies (FL393 or DO-1). Reaction and detection were performed with variations in the amount of GST-p53 added.
In the presence of GST-p53, varying concentrations (75 μM, 150 μM, 300 μM, or 600 μM) of compounds X and Y were added to the in vitro ubiquitination reaction system using MBP-Syno ΔTM-His. After reaction, proteins were separated by 7.5% SDS-PAGE, transferred onto a PVDF membrane, and then detected using the anti-p53 antibody FL393 (Santa Cruz Biotechnology).

Series [3] concerns rheumatoid arthritis synovial cells (RASCs). Put plainly: suppression of RASC proliferation (MTT). The format is cell-based. To be noted: Synovial cell, after 72 h of culture, FIGS. 23 and 24, read-out: IC50, RASC cell survival. The protocol: The low molecular weight compounds termed No. 32 (Compound X) and No. 38 (Compound Y) were used as specimens. HFLS-RA medium (Cell Applications Inc.; Code CA40405) was used for RASC. RASCs were seeded in a 96-well microtiter plate at 1,000 cells/well, and cultured for 24 h in DMEM containing 10% fetal bovine serum (Kohjin Bio). Then, twofold serial dilutions of the specimens, beginning from a final concentration of 50 μM, were added to the cells. After 1, 24, and 48 h, 3-(4,5-dimethylthiazol-2-yl)-2,5-diphenyltetrazoliumbromide (MTT) was added to a final concentration of 0.5 mg/mL. After 2 h, the medium was aspirated, and the remaining formazan was dissolved with 50 μL of dimethyl sulfoxide. Then, absorbances at […] were measured. The absorbances of the group treated with the specimens were used to calculate cell survival rates, with 0% representing the absorbance of the group without cells or specimen, and 100% representing the absorbance of the group without specimen.

T1 sequence (Q86TM6 236-617 E545G): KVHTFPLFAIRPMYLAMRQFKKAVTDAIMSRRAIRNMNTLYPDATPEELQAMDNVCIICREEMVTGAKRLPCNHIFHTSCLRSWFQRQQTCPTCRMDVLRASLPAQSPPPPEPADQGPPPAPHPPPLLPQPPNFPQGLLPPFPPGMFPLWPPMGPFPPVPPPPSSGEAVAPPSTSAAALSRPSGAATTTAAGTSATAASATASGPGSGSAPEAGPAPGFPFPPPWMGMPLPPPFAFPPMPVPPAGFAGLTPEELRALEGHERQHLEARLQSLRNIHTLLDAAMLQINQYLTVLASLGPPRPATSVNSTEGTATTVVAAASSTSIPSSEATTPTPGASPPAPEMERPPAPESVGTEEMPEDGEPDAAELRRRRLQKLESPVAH

As for “h589: double-stranded RNA in which sense strand SEQ ID NO: 18 and antisense strand SEQ ID NO: 19 are annealed; synoviolin siRNA (sense GGUGUUCUUUGGGCAACUGTT; antisense CAGUUGCCCAAAGAACACCTT; chemistry not given here)”, the cell cycle result with RA synovial cells is listed as “delay in the cell cycle at the G0/G1 phase”. In the series with synoviolin and p53 mRNA, the “level of p53 mRNA” value was “unchanged” and the “level of synoviolin mRNA” value is “decreased”.
As to `Cn1c(=O)c2c(ncn2C)n(C)c1=O` [caffeine], the “inhibition of the siRNA-enhanced phosphorylation of p53 Ser15” value in series [1] is “completely inhibited”.
Turning to `CN(C)c1nc(N/N=C/c2cc([N+](=O)[O-])ccc2O)nc(Nc2ccc(F)cc2)n1` [compound Y], the “p53 protein expression level” value in the series with p53 protein is recorded as “increased”. In the series on RKO cells, the “cell proliferation / cell survival rate of RKO cells” value is “cell proliferation was suppressed”. Besides, in series [2], the “inhibition of the GST-p53 ubiquitination reaction” value is “inhibited the GST-p53 ubiquitination reaction in a concentration-dependent manner”. Moreover, in series [3], the 50% inhibitory concentration (IC50) – broadly, the concentration that gives 50% inhibition – is approximately 6 µM.
Regarding `COc1ccc(/C=N/Nc2nc(Nc3ccc([N+](=O)[O-])cc3)nc(N3CCN(C)CC3)n2)cc1OC` [compound X], in the series on RKO cells, the “cell proliferation / cell survival rate of RKO cells” value is “cell proliferation was suppressed”. The “inhibition of the GST-p53 ubiquitination reaction” value in series [2] is on record as “inhibited the GST-p53 ubiquitination reaction in a concentration-dependent manner”. Also, in series [3], the IC50 came to 20 µM.

(Values after patent publication US20080305102A1, “Therapeutic Agent for Cancer Comprising Substance Capable of Inhibiting Expression or Function of Synoviolin as Active Ingredient and Screening Method for the Therapeutic Agent for Cancer” (priority 2005, published 2008).)
